Experimental findings from patent US20140227731A1, “DRUG FOR ANALYSIS OF WATER TRANSPORT FUNCTION OF MEMBRANE PROTEIN IN BIOLOGICAL TISSUE” (TAIYO NIPPON SANSO CORPORATION, priority 2013, published 2014) are described below.

The test system of the series is radish. Briefly: Permeation of red food coloring water into round radish slices. The procedure:
Using radish that was cut into round slices with thicknesses of 6-10 cm, the bottom faces of the round slices were immersed in red food coloring water for 1-16 hours, As the red food coloring, Red No. 102 (chemical name: 7-hydroxy-8-(4-sulfonaphthylazo)-1,3-naphthylenedisulfonic acid=trisodium salt=1½ hydrate) was used.

Each structure is given as a SMILES string.

With `O.O.O.O=S(=O)([O-])c1cc(S(=O)(=O)[O-])c2c(N=Nc3ccc(S(=O)(=O)[O-])c4ccccc34)c(O)ccc2c1.O=S(=O)([O-])c1cc(S(=O)(=O)[O-])c2c(N=Nc3ccc(S(=O)(=O)[O-])c4ccccc34)c(O)ccc2c1.[Na+].[Na+].[Na+].[Na+].[Na+].[Na+]` [Red No. 102, 7-hydroxy-8-(4-sulfonaphthylazo)-1,3-naphthylenedisulfonic acid=trisodium salt=1½ hydrate], for the setting “bottom face immersed, one hour elapsed”, the “permeation of red food coloring into radish tissue” value is “had soaked into the connective tissue at the periphery of the round slices from the bottom face”. In addition, the “sites permeated by red food coloring water” value (immersed for 16 hours) is “not found anywhere other than the connective tissue”.
